From paper PMC11519575 (Nature Communications, 2024)

Legend:
VanAB = target: T1, VanAB (Pseudomonas putida, UniProt Q88GI6); experiment: whole-cell consumption; assay type: cell-based; conditions: R. eutropha H16 expressing vanAB, sole carbon source, 30 °C
T1 sequence (Q88GI6 1-355): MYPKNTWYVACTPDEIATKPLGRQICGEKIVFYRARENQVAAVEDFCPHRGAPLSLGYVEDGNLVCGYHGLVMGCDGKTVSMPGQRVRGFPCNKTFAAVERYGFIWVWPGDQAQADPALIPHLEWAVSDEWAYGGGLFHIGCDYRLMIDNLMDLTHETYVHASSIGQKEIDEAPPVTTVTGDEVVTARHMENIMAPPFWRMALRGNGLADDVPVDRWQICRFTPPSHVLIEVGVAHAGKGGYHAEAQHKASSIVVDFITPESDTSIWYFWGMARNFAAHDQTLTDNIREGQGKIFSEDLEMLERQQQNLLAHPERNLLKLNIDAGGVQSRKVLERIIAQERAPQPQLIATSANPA
T1 sequence (Q88GI5 1-316 partner): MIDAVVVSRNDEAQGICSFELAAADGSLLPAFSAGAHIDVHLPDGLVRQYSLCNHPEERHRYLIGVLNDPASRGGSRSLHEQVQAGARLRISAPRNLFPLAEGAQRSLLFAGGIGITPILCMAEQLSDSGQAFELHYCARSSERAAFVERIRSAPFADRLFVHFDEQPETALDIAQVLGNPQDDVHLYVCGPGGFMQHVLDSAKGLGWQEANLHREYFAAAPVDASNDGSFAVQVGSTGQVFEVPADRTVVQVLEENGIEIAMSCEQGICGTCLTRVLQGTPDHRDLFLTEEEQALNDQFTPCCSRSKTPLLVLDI

LigM = LigM (Sphingobium sp. SYK-6, UniProt G2IQS7); experiment: whole-cell consumption; assay type: cell-based; conditions: tetrahydrofolate cofactor; with ligH and metF in R. eutropha H16
Sequence of LigM (G2IQS7 whole entry): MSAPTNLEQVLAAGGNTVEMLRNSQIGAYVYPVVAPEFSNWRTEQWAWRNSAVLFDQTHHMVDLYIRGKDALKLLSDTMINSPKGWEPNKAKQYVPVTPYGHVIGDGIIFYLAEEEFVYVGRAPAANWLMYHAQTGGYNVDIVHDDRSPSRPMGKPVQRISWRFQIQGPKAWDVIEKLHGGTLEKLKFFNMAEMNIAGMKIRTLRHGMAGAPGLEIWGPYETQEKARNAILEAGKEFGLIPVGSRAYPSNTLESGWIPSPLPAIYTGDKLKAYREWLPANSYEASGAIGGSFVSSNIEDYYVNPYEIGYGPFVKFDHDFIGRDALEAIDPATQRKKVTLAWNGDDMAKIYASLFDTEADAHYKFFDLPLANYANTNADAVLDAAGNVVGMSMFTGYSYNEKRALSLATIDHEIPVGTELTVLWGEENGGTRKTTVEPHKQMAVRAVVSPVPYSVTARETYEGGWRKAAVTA

## COc1cc(C(=O)O)ccc1O [vanillic acid]
VanAB
  whole-cell consumption (HPLC) and growth: expression of vanAB could enable the strain to use vanillic acid
LigM
  whole-cell consumption (HPLC) and growth: the demethylation process of the optimized LigM system is still the main rate-limiting step
